Test results taken from EP2471802A1, “Phosphoramidates of monosaccharides” (Bioiberica, S.A., priority 2010, dated 2012).

How the values were obtained:
[1] = tested on: bovine cartilage explants; experiment: GAG release inhibition (IL-1 induced) in bovine cartilage explants, Blyscan colorimetric assay; type: cell-based; details: for reduction in the GAG release induced by IL-1 (result in words): bovine explants, compared to culture stimulated with IL-1 in the presence of 0.25% DMSO
Method: (§1) Glycosaminoglycan (GAG) release is a test used to evaluate the effects of the compounds of the present invention on proteoglycan degradation induced by IL-1.
(§2) Full-depth articular cartilage were dissected from the metacarpophalangeal joints of calves of approximately 6 months of age or human cartilage from joint replacement surgery (approximately 4 mm diameter punches for bovine cartilage and 2 mm for human cartilage). After an equilibration period of 24 hours, explants were cultured for one day in 200 µl DMEM + hydrolyzed lactalbumin + 50 µg/ml vitamin C + penicillin/streptomycin + ITS (Insulin-Transferrin-Selenium) in the presence or absence of the compounds. After one day, GAG release was induced by addition of 10 ng of IL-1. Six days after IL-1 induction, the cartilage and culture medium were collected for analysis. During this six day period the culture medium was replaced every two days.
(§3) GAG release was analyzed using the Blyscan® colorimetric assay (Biocolor, Belfast, UK). To measure GAG content of the cartilage explants, the tissue was digested with papain. The culture medium of day 4, 6 and 8 was pooled before GAG analysis. GAG release was expressed as percentage of the total GAG content of the explants (i.e. GAG medium + GAG in papain digest).
(§4) A control condition with 0.25% DMSO was included because the test compounds were dissolved in DMSO. A condition with glucosamine hydrochloride was added for comparison.
(§5) Each culture condition was performed with cartilage of five different paws/patients to account for biological variation.
(§6) ANOVA followed by LSD post-hoc tests were used for determining differences between groups (p≤ 0.05 was considered significant).
(§7) Results in Tables 3 and 4 were expressed as a percentage reduction in GAG release compared to the control condition with DMSO stimulated with IL-1.

[2] = tested on: human cartilage explants; experiment: GAG release inhibition (IL-1 induced) in human cartilage explants, Blyscan colorimetric assay; type: cell-based; details: for reduction of GAG release (result in words): doses 50 µM, 100 µM and 250 µM
Method: as §1, §2, §3, §4, §5, §6, §7

[3] = Bos taurus, bovine cartilage explants, percentage reduction in GAG release vs 0.25% DMSO + IL-1 control, * p≤ 0.05, (Inactive) = not statistically significant

## COc1ccc(OP(=O)(N[C@H](C(=O)OCc2ccccc2)C(C)C)O[C@H]2[C@H](O)[C@@H](CO)OC(O)[C@@H]2NC(C)=O)cc1 (stereo partly drawn) [Compound 16, 2-acetamido-2-deoxy-3-O-[4-methoxyphenyl(benzyloxy-L-valinyl)]phosphoramidate-D-glucopyranose]
[1]; [3]
  inhibition at 100 µM: 27%
[1]
  reduction in the GAG release induced by IL-1 (result in words): statistically significant reduction of the GAG release

## CCC(C)OC(=O)[C@@H](NP(=O)(Oc1ccc(OC)cc1)O[C@H]1[C@H](O)[C@@H](CO)OC(O)[C@@H]1NC(C)=O)C(C)C (stereo partly drawn) [Compound 58, 2-acetamido-2-deoxy-3-O-[4-methoxyphenyl(2-butoxy-L-valinyl)]phosphoramidate-D-glucopyranose]
[1]; [3]
  inhibition at 100 µM: 41%
[1]
  reduction in the GAG release induced by IL-1 (result in words): statistically significant reduction of the GAG release

## COc1ccc(OP(=O)(O[C@H]2[C@H](O)[C@@H](CO)OC(O)[C@@H]2NC(C)=O)N2CCC[C@H]2C(=O)OCc2ccccc2)cc1 (stereo partly drawn) [Compound 1, 2-acetamido-2-deoxy-3-O-[4-methoxyphenyl(benzyloxy-L-prolinyl)]phosphoramidate-D-glucopyranose]
[1]
  reduction in the GAG release induced by IL-1 (result in words): statistically significant reduction of the GAG release
[2]
  reduction of GAG release (result in words): statistically significant activity

## Cl.N[C@H]1C(O)O[C@H](CO)[C@@H](O)[C@@H]1O (some centres unmarked) [Glucosamine Hydrochloride]
[1]; [3]
  inhibition at 100 µM: 0%
[1]; Bos taurus, 250 µM, bovine cartilage explants, percentage reduction in GAG release vs 0.25% DMSO + IL-1 control, * p≤ 0.05, (Inactive) = not statistically significant
  inhibition at 250 µM: 0%
[1]
  reduction in the GAG release induced by IL-1 (result in words): did not caused any statistically significant reduction
[2]; 50 µM, percentage reduction in GAG release vs 0.25% DMSO + IL-1 control, * p≤ 0.05, (Inactive) = not statistically significant
  inhibition at 50 µM: 7.8%
[2]; 100 µM, percentage reduction in GAG release vs 0.25% DMSO + IL-1 control, * p≤ 0.05, (Inactive) = not statistically significant
  inhibition at 100 µM: 11.9%
[2]; 250 µM, percentage reduction in GAG release vs 0.25% DMSO + IL-1 control, * p≤ 0.05, (Inactive) = not statistically significant
  inhibition at 250 µM: 11.9%
[2]
  reduction of GAG release (result in words): inactive

## COc1ccc(OP(=O)(N[C@H](C(=O)OCc2ccccc2)C(C)C)O[C@H]2[C@H](O)[C@@H](CO)OC(O)[C@@H]2N)cc1 (stereo partly drawn) [Compound 63, 2-amino-2-deoxy-3-O-[4-methoxyphenyl(benzyloxy-L-valinyl)]phosphoramidate-D-glucopyranose]
[1]; [3]
  inhibition at 100 µM: 31%
[1]
  reduction in the GAG release induced by IL-1 (result in words): statistically significant reduction of the GAG release

## CCOC(=O)[C@@H]1CCCN1P(=O)(Oc1ccc(OC)cc1)O[C@H]1[C@H](O)[C@@H](CO)OC(O)[C@@H]1NC(C)=O (some centres unmarked) [Compound 31]
[1]
  reduction in the GAG release induced by IL-1 (result in words): statistically significant reduction of the GAG release

## CCOC(=O)[C@@H]1CCCN1P(=O)(Oc1cccc2ccccc12)O[C@H]1[C@H](O)[C@@H](CO)OC(O)[C@@H]1NC(C)=O (stereo partly drawn) [Compound 80, 2-acetamido-2-deoxy-3-O-[1-naphtyl(ethoxy-L-prolinyl)]phosphoramidate-D-glucopyranose]
[1]
  reduction in the GAG release induced by IL-1 (result in words): statistically significant reduction of the GAG release

## C=CCCC(=O)N[C@H]1C(O)O[C@H](CO)[C@@H](O)[C@@H]1OP(=O)(N[C@H](C(=O)OCc1ccccc1)C(C)C)Oc1ccc(OC)cc1 (stereo partly drawn) [Compound 61, 2-deoxy-2-(pent-4-enoylamino)-3-O-[4-methoxyphenyl(benzyloxy-L-valinyl)]phosphoramidate-D-glucopyranose]
[1]; [3]
  inhibition at 100 µM: 47%
[1]
  reduction in the GAG release induced by IL-1 (result in words): statistically significant reduction of the GAG release

## CC(=O)N[C@H]1C(O)O[C@H](CO)[C@@H](O)[C@@H]1OP(=O)(Oc1ccccc1)N1CCC[C@H]1C(=O)OCc1ccccc1 (stereo partly drawn) [Compound 74, 2-acetamido-2-deoxy-3-O-[phenyl(benzyloxy-L-prolinyl)]phosphoramidate-D-glucopyranose]
[1]
  reduction in the GAG release induced by IL-1 (result in words): statistically significant reduction of the GAG release

## COc1ccc(OP(=O)(NC(C(=O)OCc2ccccc2)C(C)C)OC[C@H]2OC(O)[C@H](NC(C)=O)[C@@H](O)[C@@H]2O)cc1 (some centres unmarked) [Reference compound 4, reference compound]
[1]; [3]
  inhibition at 100 µM: 3%

## CCCCCOC(=O)[C@@H]1CCCN1P(=O)(Oc1ccc(OC)cc1)O[C@H]1[C@H](O)[C@@H](NC(C)=O)C(O)O[C@@H]1CO (stereo partly drawn) [Compound 69, 2-acetamido-2-deoxy-4-0-[4-methoxyphenyl(n-pentoxy-L-prolinyl)]phosphoramidate-D-glucopyranose]
[1]
  reduction in the GAG release induced by IL-1 (result in words): statistically significant reduction of the GAG release

## 2-deoxy-2-(pent-4-enoylamino)-3-O-[4-methoxyphenyl(ethoxy-L-prolinyl)]phosphoramidate-D-glucopyranose [Compound 87]
[1]; 250 µM, bovine cartilage explants, percentage reduction in GAG release vs 0.25% DMSO + IL-1 control, * p≤ 0.05, (Inactive) = not statistically significant
  GAG release inhibition: 33.3%*
[1]
  reduction in the GAG release induced by IL-1 (result in words): statistically significant reduction of the GAG release

## COc1ccc(OP(=O)(NC(C(=O)OCc2ccccc2)C(C)C)OC[C@H]2OC(O)[C@H](N)[C@@H](O)[C@@H]2O)cc1 (some centres unmarked) [Reference compound 5, reference compound]
[1]; [3]
  inhibition at 100 µM: 4%

## CCOC(=O)[C@@H]1CCCN1P(=O)(Oc1ccc(OC)cc1)O[C@H]1[C@H](O)[C@@H](NC(C)=O)C(O)O[C@@H]1CO (stereo partly drawn) [Compound 32, 2-acetamido-2-deoxy-4-O-[4-methoxyphenyl(ethoxy-L-prolinyl)]phosphoramidate-D-glucopyranose]
[1]
  reduction in the GAG release induced by IL-1 (result in words): statistically significant reduction of the GAG release
